Reference: PMC11845477, “Exploring the principles behind antibiotics with limited resistance” (Nature Communications, 2025)

Tests used:
Experiment in all cases: microbe, parasite or virus in culture
[1] = tested on: T1, Acinetobacter baumannii ATCC 17978; design: CLSI broth microdilution MIC; OD600 < 0.05 counted as complete growth inhibition; settings: Acinetobacter baumannii, ATCC17978, 18 h; read-out: MIC of ancestor
T1 construct: ATCC 17978
Experimental: (§1) A final concentration of 5 × 10^5 bacterial cells per mL were inoculated into each well containing 60 µL MHB medium. Bacterial cultures were incubated at 37 °C with continuous shaking (Infors shaker, 900 rpm with 3 mm throw) for 18 hours (2 replicates from each). Cell growth was monitored by measuring the optical density (OD600 values, using Biotek Synergy microplate reader). MIC was defined as the antibiotic concentration of complete growth inhibition (i.e., OD600 < 0.05). Relative MIC was calculated as follows:1 relativeMIC=MICevolved/MICancestor This study focused on multiple bacterial strains, as follows. For the FoR and ALE experiments, 2 strains per species were chosen: E. coli ATCC 25922, K. pneumoniae ATCC 10031, A. baumannii ATCC 17978, and P. aeruginosa ATCC BAA-3107 as sensitive (SEN) strains, and E. coli NCTC13846, K. pneumoniae ATCC 700603, A. baumannii ATCC BAA-1605 and P. aeruginosa LESB58 as multi-drug resistant (MDR) strains. Functional metagenomic screens were performed with E. coli ATCC 25922 and K. pneumoniae ATCC 10031 strains. To determine the dose-kill properties of the different antibiotics, an E. coli strain (ATCC 25922) expressing a yellow fluorescent protein (pZS2R, YFP, CHL^R) and a red fluorescent protein (pZS2R, mCherry, CHL^R) was used.

[2] = tested on: T2, Acinetobacter baumannii ATCC BAA 1605; design: CLSI broth microdilution MIC; OD600 < 0.05 counted as complete growth inhibition; settings: Acinetobacter baumannii, BAA1605, 18 h; read-out: MIC of ancestor
T2 construct: ATCC BAA-1605
Experimental: as §1

[3] = tested on: T3, Escherichia coli ATCC 25922; design: CLSI broth microdilution MIC; OD600 < 0.05 counted as complete growth inhibition; settings: Escherichia coli, ATCC25922, 18 h; read-out: MIC of ancestor
T3 construct: ATCC 25922
Experimental: as §1

[4] = tested on: T4, Klebsiella pneumoniae ATCC 10031; design: CLSI broth microdilution MIC; OD600 < 0.05 counted as complete growth inhibition; settings: Klebsiella pneumoniae, ATCC10031, 18 h; read-out: MIC of ancestor
T4 construct: ATCC 10031
Experimental: as §1

[5] = tested on: T5, Escherichia coli NCTC 13846; design: CLSI broth microdilution MIC; OD600 < 0.05 counted as complete growth inhibition; settings: Escherichia coli, NCTC13846, 18 h; read-out: MIC of ancestor
T5 construct: NCTC 13846
Experimental: as §1

[6] = tested on: T6, Klebsiella pneumoniae ATCC 700603; design: CLSI broth microdilution MIC; OD600 < 0.05 counted as complete growth inhibition; settings: Klebsiella pneumoniae, ATCC700603, 18 h; read-out: MIC of ancestor
T6 construct: ATCC 700603
Experimental: as §1

[7] = tested on: T7, A. baumannii ATCC 17978; design: Serial broth microdilution MIC (CLSI), OD600 below 0.05, 384-well plates, MHB medium; settings: Acinetobacter baumannii, ATCC17978, 18 h; ancestor strain before evolution
T7 construct: ATCC 17978
Experimental: as §1

[8] = tested on: E. coli ATCC 25922; design: Serial broth microdilution MIC (CLSI), OD600 below 0.05, 384-well plates, MHB medium; settings: Escherichia coli, ATCC25922, 18 h; ancestor strain before evolution
Experimental: as §1

[9] = tested on: T8, E. coli NCTC13846 (MDR); design: Serial broth microdilution MIC (CLSI), OD600 below 0.05, 384-well plates, MHB medium; settings: Escherichia coli, NCTC13846, 18 h; ancestor strain before evolution
T8 construct: NCTC 13846
Experimental: as §1

[10] = tested on: T9, K. pneumoniae ATCC 10031; design: Serial broth microdilution MIC (CLSI), OD600 below 0.05, 384-well plates, MHB medium; settings: Klebsiella pneumoniae, ATCC10031, 18 h; ancestor strain before evolution
T9 construct: ATCC 10031
Experimental: as §1

[11] = tested on: T10, K. pneumoniae ATCC 700603 (MDR); design: Serial broth microdilution MIC (CLSI), OD600 below 0.05, 384-well plates, MHB medium; settings: Klebsiella pneumoniae, ATCC700603, 18 h; ancestor strain before evolution
T10 construct: ATCC 700603
Experimental: as §1

SMILES	MIC [1]	MIC [2]	MIC [3]	MIC [4]	MIC [5]	MIC [6]	MIC [7]	MIC [8]	MIC [9]	MIC [10]	MIC [11]
CC(C)c1ccc(Cn2ccc3c4c(N)nc(NC5CC5)nc4ccc32)cc1 [SCH, SCH79797]	4 µg/mL	4 µg/mL	4 µg/mL	4 µg/mL	–	–	–	–	–	–	–
C[C@@H](O)[C@H]1C(=O)N2C(C(=O)O)=C(S[C@H]3CC[S@@+]([O-])C3)S[C@H]12 [SUO, sulopenem]	1 µg/mL	–	0.0312 µg/mL	0.0312 µg/mL	0.0312 µg/mL	0.5 µg/mL	–	–	–	–	–
C[C@@H](O)[C@H]1C(=O)N2C(C(=O)O)=C(S[C@H]3CC[S@@+]([O-])C3)S[C@H]12 [sulopenem]	–	–	–	–	–	–	1 µg/mL	0.0312 µg/mL	0.0312 µg/mL	0.0312 µg/mL	0.5 µg/mL
